Reference: patent US20240384268A1, “Oligonucleotides” (Hudson Institute of Medical Research, priority 2021, published 2024)
In the oligonucleotide strings, read from the 5' end, every base follows the letter of its sugar. An asterisk marks phosphorothioate; unmarked linkages are phosphodiester. Other units and linkages are bracketed, terminal groups are in braces. A string of capitals states the bases alone. d = 2'-deoxy (DNA); m = 2'-O-methyl

Target: cGAS (Homo sapiens, UniProt Q8N884)
Experiment: ISD70-driven IP-10 (and IFN-β) production in THP-1 cells, ELISA
Format: cell-based
Set-up: endogenous in cells; host or cells: THP-1 (undifferentiated)
Details: for cGAS-100 nM: averaged IP-10 levels relative to ISD70: THP-1, 100 nM ASO overnight, then ISD70 2.5 μg/ml 7-8 h, percentage of ISD70 only; for cGAS 100 nM: MOE-modified ASO at 100 nM, averaged IP-10 levels relative to ISD70 condition

Chain of cGAS (Q8N884 whole entry): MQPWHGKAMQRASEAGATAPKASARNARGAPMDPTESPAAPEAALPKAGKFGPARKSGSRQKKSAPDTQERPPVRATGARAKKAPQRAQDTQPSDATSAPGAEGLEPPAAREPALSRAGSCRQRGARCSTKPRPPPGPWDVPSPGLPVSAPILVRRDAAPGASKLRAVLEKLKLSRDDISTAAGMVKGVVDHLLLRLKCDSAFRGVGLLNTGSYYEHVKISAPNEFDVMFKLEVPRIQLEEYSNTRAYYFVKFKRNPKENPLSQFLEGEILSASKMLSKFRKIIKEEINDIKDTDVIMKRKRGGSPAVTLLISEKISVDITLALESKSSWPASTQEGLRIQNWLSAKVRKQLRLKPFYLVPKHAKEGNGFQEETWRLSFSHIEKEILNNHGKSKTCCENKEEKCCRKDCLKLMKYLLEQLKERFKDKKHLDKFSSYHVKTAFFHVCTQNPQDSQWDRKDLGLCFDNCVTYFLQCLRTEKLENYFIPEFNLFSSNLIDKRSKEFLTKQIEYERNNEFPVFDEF

Substance	cGAS-100 nM: averaged IP-10 levels relative to ISD70 [%]	cGAS 100 nM
mC*mU*mC*mU*mC*T*G*G*T*C*C*C*A*T*C*mC*mC*mU*mU*mC (mC*mU*mC*mU*mC*dT*dG*dG*dT*dC*dC*dC*dA*dT*dC*mC*mC*mU*mU*mC; antisense) [[LINC-PINT]109]	80.22	
mU*mC*mC*mC*mA*T*C*C*C*T*T*C*T*G*C*mU*mG*mA*mC*mA (UCCCATCCCTTCTGCUGACA; sugars from the 5' end m5 d10 m5, all phosphorothioate, methylation of C not given here) [[LINC-PINT]101]	86.62	
mC*mU*mU*mU*mA*T*A*T*T*A*C*A*A*A*G*mC*mU*mA*mC*mU (mC*mU*mU*mU*mA*dT*dA*dT*dT*dA*dC*dA*dA*dA*dG*mC*mU*mA*mC*mU; antisense) [[LINC-PINT]2755]	92.54	
mU*mG*mA*mC*mA*A*A*A*C*A*A*T*A*A*T*mA*mA*mC*mA*mG (mU*mG*mA*mC*mA*dA*dA*dA*dC*dA*dA*dT*dA*dA*dT*mA*mA*mC*mA*mG) [[LINC-PINT]384]	88.79	
mG*mG*mU*mC*mU*C*C*T*C*C*A*C*A*C*C*mC*mU*mU*mC*mU (mG*mG*mU*mC*mU*dC*dC*dT*dC*dC*dA*dC*dA*dC*dC*mC*mU*mU*mC*mU; antisense) [[LINC-PINT]127]	36.95	
mC*mC*mU*mU*mC*T*G*C*T*G*C*C*A*A*G*mC*mC*mC*mC*mA (mC*mC*mU*mU*mC*dT*dG*dC*dT*dG*dC*dC*dA*dA*dG*mC*mC*mC*mC*mA; antisense) [[LINC-PINT]94]	104.33	
mA*mA*mA*mU*mG*T*C*C*T*G*G*C*C*C*T*mC*mA*mC*mU*mG (mA*mA*mA*mU*mG*dT*dC*dC*dT*dG*dG*dC*dC*dC*dT*mC*mA*mC*mU*mG) [[LINC-PINT]148.1]	66.46	
mG*mC*mA*mA*mG*G*C*A*G*A*G*A*A*A*C*mU*mC*mC*mA*mG (GCAAGGCAGAGAAACUCCAG; sugars from the 5' end m5 d10 m5, all phosphorothioate, methylation of C not given here) [[LINC-PINT]1315 KL]	30.64	
mG*mU*mC*mC*mC*A*G*G*C*C*T*C*C*A*G*mU*mG*mU*mC*mU (mG*mU*mC*mC*mC*dA*dG*dG*dC*dC*dT*dC*dC*dA*dG*mU*mG*mU*mC*mU; antisense) [[CDKN2B-AS1]2223]	74.22	
GGGTATCGAAAGAGTCTGGA (antisense; 2'-MOE modified, pattern not given here) [EGFR-3908 MOE]		0.427
mU*mU*mA*mG*mC*T*C*C*T*T*G*C*C*T*C*mG*mU*mU*mC*mC (mU*mU*mA*mG*mC*dT*dC*dC*dT*dT*dG*dC*dC*dT*dC*mG*mU*mU*mC*mC; antisense) [[LINC-PINT] 1222]	63.80	
mA*mU*mA*mU*mC*T*G*C*T*G*C*C*C*A*C*mC*mU*mU*mC*mU (AUAUCTGCTGCCCACCUUCU; antisense; sugars from the 5' end m5 d10 m5, all phosphorothioate, methylation of C not given here) [[CDKN2B-AS1]831]	108.01	
mU*mC*mU*mC*mU*C*T*G*G*T*C*C*C*A*T*mC*mC*mC*mU*mU (mU*mC*mU*mC*mU*dC*dT*dG*dG*dT*dC*dC*dC*dA*dT*mC*mC*mC*mU*mU; antisense) [[LINC-PINT]110]	92.39	
mG*mU*mC*mC*mG*T*A*C*C*T*C*C*A*C*C*mC″mA*mC*mC*mG [[LINC-PINT]727.1]	86.09	
mU*mU*mG*mG*mC*C*T*G*T*G*G*A*T*G*C*mU*mU*mU*mG*mU (mU*mU*mG*mG*mC*dC*dT*dG*dT*dG*dG*dA*dT*dG*dC*mU*mU*mU*mG*mU) [[LINC-PINT]2673.1]	68.35	
mA*mA*mG*mG*mU*G*G*C*C*A*C*A*G*G*C*mA*mA*mC*mG*mU (mA*mA*mG*mG*mU*dG*dG*dC*dC*dA*dC*dA*dG*dG*dC*mA*mA*mC*mG*mU; antisense) [[CDKN2B-AS1]2198]	60.48	
mG*mG*mG*mU*mC*T*C*C*T*C*C*A*C*A*C*mC*mC*mU*mU*mC (GGGUCTCCTCCACACCCUUC; antisense; sugars from the 5' end m5 d10 m5, all phosphorothioate, methylation of C not given here) [[LINC-PINT]128]	37.83	
mA*mA*mG*mA*mU*T*A*T*C*T*T*C*T*T*T*mU*mA*mA*mU*mU (mA*mA*mG*mA*mU*dT*dA*dT*dC*dT*dT*dC*dT*dT*dT*mU*mA*mA*mU*mU) [[CDKN2B-AS1]2131]	73.50	
mC*mC*mA*mU*mC*C*C*T*T*C*T*G*C*T*G*mC*mC*mA*mA*mG (mC*mC*mA*mU*mC*dC*dC*dT*dT*dC*dT*dG*dC*dT*dG*mC*mC*mA*mA*mG; antisense) [ILING-PINT199]	85.43	
TGGCAGGCTCAGTGATGTCT (antisense; 2'-MOE modified, pattern not given here) [CTNN2B-1642 MOE]		0.605

Substance	cGAS-100 nM: averaged IP-10 levels relative to ISD70 [%]	cGAS 100 nM
mG*mA*mU*mU*mA*A*A*A*C*A*G*A*T*T*A*mA*mU*mA*mC*mA (mG*mA*mU*mU*mA*dA*dA*dA*dC*dA*dG*dA*dT*dT*dA*mA*mU*mA*mC*mA) [[CDKN2B-AS1]1773]	89.36	
mG*mU*mC*mC*mC*A*T*C*C*C*T*T*C*T*G*mC*mU*mG*mC*mC (GUCCCATCCCTTCTGCUGCC; antisense; sugars from the 5' end m5 d10 m5, all phosphorothioate, methylation of C not given here) [[LINC-PINT]102]	113.87	
ATGCCATCCACTTGATAGGC (antisense; 2'-MOE modified, pattern not given here) [EGFR-2874 MOE]		0.639
mC*mC*mU*mA*mG*A*A*A*G*A*A*G*C*A*A*mA*mG*mA*mU*mU (mC*mC*mU*mA*mG*dA*dA*dA*dG*dA*dA*dG*dC*dA*dA*mA*mG*mA*mU*mU) [[CDKN2B-AS1]1522]	60.90	
mA*mA*mA*mA*mU*A*A*G*G*G*G*A*A*T*A*mG*mG*mG*mG*mA (mA*mA*mA*mA*mU*dA*dA*dG*dG*dG*dG*dA*dA*dT*dA*mG*mG*mG*mG*mA; antisense) [[CDKN2B-AS1]79]	94.10	
mG*mC*mG*mU*mA*G*T*T*T*C*T*C*T*T*C*mC*mU*mC*mC*mC (GCGUAGTTTCTCTTCCUCCC; sugars from the 5' end m5 d10 m5, all phosphorothioate, methylation of C not given here) [[LINC-PINT]935 KL]	50.62	
CGGAGGTCTTGGCTTCGTGG (antisense; 2'-MOE modified, pattern not given here) [MB21D1-525 MOE]		0.111
mU*mG*mA*mU*mG*A*T*G*C*T*T*G*C*A*G*mG*mA*mG*mG*mC (mU*mG*mA*mU*mG*dA*dT*dG*dC*dT*dT*dG*dC*dA*dG*mG*mA*mG*mG*mC) [[LINC-PINT|283.1]	85.85	
mA*mU*mG*mA*mC*A*T*T*T*C*G*T*G*G*C*mU*mC*mC*mU*mA (mA*mU*mG*mA*mC*dA*dT*dT*dT*dC*dG*dT*dG*dG*dC*mU*mC*mC*mU*mA) [[LINC-PINT]524.1]	99.38	
GTCCAAGATCAGCAGTCTCA (antisense; 2'-MOE modified, pattern not given here) [CTNN2B-2341 MOE]		0.705
mC*mC*mC*mU*mU*C*T*C*T*C*T*G*G*T*C*mC*mC*mA*mU*mC (mC*mC*mC*mU*mU*dC*dT*dC*dT*dC*dT*dG*dG*dT*dC*mC*mC*mA*mU*mC; antisense) [[LINC-PINT]114]	84.38	
GGTTTTGGCTGGGATCAAGT (antisense; 2'-MOE modified, pattern not given here) [CAMSAP1-4697 MOE]		0.375
mU*mU*mU*mG*mA*A*A*T*T*C*A*G*A*A*G*mA*mU*mU*mU*mG (mU*mU*mU*mG*mA*dA*dA*dT*dT*dC*dA*dG*dA*dA*dG*mA*mU*mU*mU*mG) [[LINC PINT|2690]	84.15	
CGGCATCCACCACGTCGTCC (antisense; 2'-MOE modified, pattern not given here) [EGFR-3267 MOE]		0.378
mG*mG*mU*mG*mG*C*C*A*C*A*G*G*C*A*A*mC*mG*mU*mC*mA (GGUGGCCACAGGCAACGUCA; antisense; sugars from the 5' end m5 d10 m5, all phosphorothioate, methylation of C not given here) [[CDKN2B-AS1]2196]	48.58	
mC*mC*mU*mU*mC*T*C*T*C*T*G*GT*C*C*mC*mA*mU*mC*mC (CCUUCTCTCTGGTCCCAUCC; antisense; chemistry not fully specified) [[LINC-PINT]113]	103.79	
mC*mU*mU*mC*mU*C*T*C*T*G*G*T*C*C*C*mA*mU*mC*mC*mC (mC*mU*mU*mC*mU*dC*dT*dC*dT*dG*dG*dT*dC*dC*dC*mA*mU*mC*mC*mC) [[LINC-PINT]112]	82.64	
mC*mA*mC*mC*mC*T*T*C*T*C*T*C*T*G*G*mU*mC*mC*mC*mA (CACCCTTCTCTCTGGUCCCA; antisense; sugars from the 5' end m5 d10 m5, all phosphorothioate, methylation of C not given here) [[LINC-PINT]116]	97.19	
mU*mU*mC*mU*mC*T*C*T*G*G*T*C*C*C*A*mU*mC*mC*mC*mU (mU*mU*mC*mU*mC*dT*dC*dT*dG*dG*dT*dC*dC*dC*dA*mU*mC*mC*mC*mU; antisense) [[LINC-PINT]111]	77.41	
mU*mC*mU*mC*mC*A*T*G*T*C*C*C*A*G*G*mC*mC*mU*mC*mC (mU*mC*mU*mC*mC*dA*dT*dG*dT*dC*dC*dC*dA*dG*dG*mC*mC*mU*mC*mC; antisense) [[CDKN2B-AS1]2230]	94.78	
